# Experimental data taken from PubChem BioAssay (NCI).
#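 How tested: cells in 96-well plates exposed to compound for 48 hours at five concentrations. GI50: concentration for 50% inhibition of growth. At the TGI there is no net growth.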
# Experiments:
# Assay in all cases: DTP human tumour cell line panel, 48 h
# 786-0 renal = system: 786-0 renal
# A498 renal = system: A498 renal
# ACHN renal = system: ACHN renal
# BT-549 breast = system: BT-549 breast
# CAKI-1 renal = system: CAKI-1 renal
# CCRF-CEM leukemia = system: CCRF-CEM leukemia
# COLO 205 colon = system: COLO 205 colon
# DU-145 prostate = system: DU-145 prostate
# EKVX NSCLC = system: EKVX NSCLC
# HCC-2998 colon = system: HCC-2998 colon
# HCT-116 colon = system: HCT-116 colon
# HCT-15 colon = system: HCT-15 colon
# HL-60(TB) leukemia = system: HL-60(TB) leukemia
# HOP-62 NSCLC = system: HOP-62 NSCLC
# HS 578T breast = system: HS 578T breast
# HT29 colon = system: HT29 colon
# K-562 leukemia = system: K-562 leukemia
# KM12 colon = system: KM12 colon
# M14 melanoma = system: M14 melanoma
# MALME-3M melanoma = system: MALME-3M melanoma
# MCF7 breast = system: MCF7 breast
# MDA-MB-231 breast = system: MDA-MB-231 breast
# MDA-MB-435 = system: MDA-MB-435
# MOLT-4 leukemia = system: MOLT-4 leukemia
# NCI-H226 lung = system: NCI-H226 lung
# NCI-H23 lung = system: NCI-H23 lung
# NCI-H460 lung = system: NCI-H460 lung
# NCI/ADR-RES ovarian = system: NCI/ADR-RES ovarian
# OVCAR-3 ovarian = system: OVCAR-3 ovarian
# OVCAR-4 ovarian = system: OVCAR-4 ovarian
# OVCAR-5 ovarian = system: OVCAR-5 ovarian
# OVCAR-8 ovarian = system: OVCAR-8 ovarian
# PC-3 prostate = system: PC-3 prostate
# RPMI-8226 leukemia = system: RPMI-8226 leukemia
# RXF 393 renal = system: RXF 393 renal
# SF-268 CNS = system: SF-268 CNS
# SF-295 CNS = system: SF-295 CNS
# SF-539 CNS = system: SF-539 CNS
# SK-MEL-2 melanoma = system: SK-MEL-2 melanoma
# SK-MEL-28 melanoma = system: SK-MEL-28 melanoma
# SK-MEL-5 melanoma = system: SK-MEL-5 melanoma
# SK-OV-3 ovarian = system: SK-OV-3 ovarian
# SN12C renal = system: SN12C renal
# SNB-19 CNS = system: SNB-19 CNS
# SNB-75 CNS = system: SNB-75 CNS
# SW-620 colon = system: SW-620 colon
# T-47D breast = system: T-47D breast
# TK-10 renal = system: TK-10 renal
# U251 CNS = system: U251 CNS
# UACC-257 melanoma = system: UACC-257 melanoma
# UACC-62 melanoma = system: UACC-62 melanoma
# UO-31 renal = system: UO-31 renal
smiles,measurement,setting,value
CCn1cc(C(=O)O)c(=O)c2cc(F)c(N3CCN(S(=O)(=O)c4ccc(Cl)cc4)CC3)cc21,GI50,786-0 renal,3.77 µM
same,TGI,786-0 renal,> 100 µM
same,GI50,A498 renal,1.81 µM
same,TGI,A498 renal,7.47 µM
same,GI50,ACHN renal,3.09 µM
same,TGI,ACHN renal,9.87 µM
same,GI50,BT-549 breast,2.44 µM
same,TGI,BT-549 breast,7.27 µM
same,GI50,CAKI-1 renal,2.75 µM
same,TGI,CAKI-1 renal,7.06 µM
same,GI50,CCRF-CEM leukemia,2.93 µM
same,TGI,CCRF-CEM leukemia,> 100 µM
same,GI50,COLO 205 colon,2.62 µM
same,TGI,COLO 205 colon,5.84 µM
same,GI50,DU-145 prostate,4.11 µM
same,TGI,DU-145 prostate,> 100 µM
same,GI50,EKVX NSCLC,2.25 µM
same,TGI,EKVX NSCLC,9.89 µM
same,GI50,HCC-2998 colon,4.1 µM
same,TGI,HCC-2998 colon,> 100 µM
same,GI50,HCT-116 colon,3.18 µM
same,TGI,HCT-116 colon,> 100 µM
same,GI50,HCT-15 colon,3.62 µM
same,TGI,HCT-15 colon,> 100 µM
same,GI50,HL-60(TB) leukemia,2.18 µM
same,TGI,HL-60(TB) leukemia,4.81 µM
same,GI50,HOP-62 NSCLC,4.47 µM
same,TGI,HOP-62 NSCLC,> 100 µM
same,GI50,HS 578T breast,4.52 µM
same,TGI,HS 578T breast,> 100 µM
same,GI50,HT29 colon,2.64 µM
same,TGI,HT29 colon,6.21 µM
same,GI50,K-562 leukemia,2.91 µM
same,TGI,K-562 leukemia,> 100 µM
same,GI50,KM12 colon,4.07 µM
same,TGI,KM12 colon,> 100 µM
same,GI50,M14 melanoma,2.85 µM
same,TGI,M14 melanoma,> 100 µM
same,GI50,MALME-3M melanoma,1.99 µM
same,TGI,MALME-3M melanoma,5.25 µM
same,GI50,MCF7 breast,2.98 µM
same,TGI,MCF7 breast,> 100 µM
same,GI50,MDA-MB-231 breast,2.51 µM
same,TGI,MDA-MB-231 breast,> 100 µM
same,GI50,MDA-MB-435,2.47 µM
same,TGI,MDA-MB-435,7.55 µM
same,GI50,MOLT-4 leukemia,3.83 µM
same,TGI,MOLT-4 leukemia,> 100 µM
same,GI50,NCI-H226 lung,3.02 µM
same,TGI,NCI-H226 lung,> 100 µM
same,GI50,NCI-H23 lung,2.67 µM
same,TGI,NCI-H23 lung,7.15 µM
same,GI50,NCI-H460 lung,3.16 µM
same,TGI,NCI-H460 lung,> 100 µM
same,GI50,NCI/ADR-RES ovarian,2.98 µM
same,TGI,NCI/ADR-RES ovarian,8.99 µM
same,GI50,OVCAR-3 ovarian,3.51 µM
same,TGI,OVCAR-3 ovarian,> 100 µM
same,GI50,OVCAR-4 ovarian,2.2 µM
same,TGI,OVCAR-4 ovarian,7.57 µM
same,GI50,OVCAR-5 ovarian,4.25 µM
same,TGI,OVCAR-5 ovarian,> 100 µM
same,GI50,OVCAR-8 ovarian,2.8 µM
same,TGI,OVCAR-8 ovarian,> 100 µM
same,GI50,PC-3 prostate,2.31 µM
same,TGI,PC-3 prostate,8.22 µM
same,GI50,RPMI-8226 leukemia,3.08 µM
same,TGI,RPMI-8226 leukemia,> 100 µM
same,GI50,RXF 393 renal,3.32 µM
same,TGI,RXF 393 renal,> 100 µM
same,GI50,SF-268 CNS,3.85 µM
same,TGI,SF-268 CNS,> 100 µM
same,GI50,SF-295 CNS,3.78 µM
same,TGI,SF-295 CNS,11.8 µM
same,GI50,SF-539 CNS,4.12 µM
same,TGI,SF-539 CNS,> 100 µM
same,GI50,SK-MEL-2 melanoma,2.57 µM
same,TGI,SK-MEL-2 melanoma,5.67 µM
same,GI50,SK-MEL-28 melanoma,4.88 µM
same,TGI,SK-MEL-28 melanoma,> 100 µM
same,GI50,SK-MEL-5 melanoma,1.8 µM
same,TGI,SK-MEL-5 melanoma,3.51 µM
same,GI50,SK-OV-3 ovarian,3.28 µM
same,TGI,SK-OV-3 ovarian,9.23 µM
same,GI50,SN12C renal,2.92 µM
same,TGI,SN12C renal,> 100 µM
same,GI50,SNB-19 CNS,3.97 µM
same,TGI,SNB-19 CNS,> 100 µM
same,GI50,SNB-75 CNS,2.6 µM
same,TGI,SNB-75 CNS,9.81 µM
same,GI50,SW-620 colon,3.43 µM
same,TGI,SW-620 colon,> 100 µM
same,GI50,T-47D breast,3.2 µM
same,TGI,T-47D breast,14.3 µM
same,GI50,TK-10 renal,3.73 µM
same,TGI,TK-10 renal,> 100 µM
same,GI50,U251 CNS,3.1 µM
same,TGI,U251 CNS,> 100 µM
same,GI50,UACC-257 melanoma,2.16 µM
same,TGI,UACC-257 melanoma,5.5 µM
same,GI50,UACC-62 melanoma,2.02 µM
same,TGI,UACC-62 melanoma,7.44 µM
same,GI50,UO-31 renal,2.07 µM
same,TGI,UO-31 renal,7.66 µM
